This experiment has as its system Neuro2A cells. The experiment can be described thus: Targeted lipidomics in Neuro2A cells. The settings on record: in situ treatment 1h, 37 °C; n=4. The class given is cell-based, mouse. How it is done:
To test the cellular activity of inventive compound 25, the inventor used Neuro2A cells, which is a mouse neuroblastoma cell line known to express both DAGL-α and DAGL-β. In a targeted lipidomics experiment the effect of inventive compound 25 on the cellular levels of 2-AG and anandamide was determined.
Neuro2A cells were cultured as described above. Before inhibitor treatment, the culture medium was removed and the cells were washed with warm (37 °C) serum free medium (3x). The cells were treated with vehicle (DMSO) or inhibitor for 1h at 37 °C in serum free medium. […]
Endocannabinoids were measured using a chip-based nano liquid chromatography (LC) system coupled to a triple quadrupole mass spectrometer. […]
A 6440 Triple quadrupole equipped with a nonoESI source operating in positive mode (Agilent technologies, Walborn, Germany) was used for MS detection. […] Quantification was obtained using static MRM (multiple reaction monitoring) mode of the transistions at m/z 379.3 → 287.2 for 2AG, 348.3 → 62.2 for AEA and 387.3 → 294.2 for 2AGd8, 356.3 → 62.2 for AEAd8 (internal standards). […] Raw MS data were processes using mass hunter quantitative analysis work station (Agilent technologies). AEA and 2AG was quantified by using a matrix matched internal standard calibration curve. […]

SMILES strings stand for the structures.

Take `Cc1ccc(-c2cnc3nc(C(=O)CCCCCc4ccccc4)oc3c2)cc1` [Compound 25, 1-(6-(p-Tolyl)oxazolo[4,5-b]pyridin-2-yl)-6-phenylhexan-1-one]: the anandamide levels result is on record as “constant” and the “basal 2-AG levels” value is recorded as “dose dependently decreased”.

The record behind these values is patent EP3095787A1, “[…] ACTIVE COMPOUNDS AS DAG-LIPASE INHIBITORS” (Universiteit Leiden, priority 2015, dated 2016).
